What was measured:
rat livers = type: in vivo
Procedure: Outbred male Sprague Dawley rats (180-200 g; Charles River) were used in all bile duct ligation (BDL) and sham studies. After 6 days acclimatization rats were divided into 2 groups (BDL group and sham group). For the BDL animals, the abdomen was shaved and swabbed with betadine solution followed by 5 mg/kg carprofen subcutaneously (s.c.) and 5 mg/kg bupronorphine s.c. and under Isoflurane anaesthesia a mid-line laparotomy was performed and the common bile duct located. Bile duct was double ligated, the first ligation made between the junction of the hepatic ducts and the second above the entrance of the pancreatic ducts. The second group (sham animals) abdomen was shaved and swabbed with betadine solution followed by 5 mg/kg carprofen s.c. and 5 mg/kg bupronorphine s.c. Animals underwent sham surgery where bile duct was manipulated and a suture passed under the bile duct. Before closing 2-3 ml saline was administered into the peritoneum of each animal. […] Animals were closely monitored for the duration of the experiment.
For assessment of PET Tracer 1 in the BDL rat model, static PET images were acquired longitudinally (imaged at 60-90 minutes post-injection) at days 2, 5, 9, 15 and 30 post bile duct ligation surgery or sham surgery. […] Data was analysed using Asipro and Amide software. […]

[1] = target: T1, membranes prepared from EA-Hy926 cells (integrin αvβ3) (Homo sapiens, UniProt P05106+P06756); assay: Competitive 125I-echistatin binding to membranes prepared from EA-Hy926 cells; settings: competition with 125I-echistatin, 1 hour at 37° C., read-out: affinity (inhibition constant)
T1 construct: membranes from the human endothelial adenocarcinoma cell line EA-Hy926 were prepared; endogenous in cells; host or cells: EA-Hy926 (human endothelial cell line), purified membrane fraction
Procedure: The inhibition constant was measured using a previously-described membrane binding assay (Indrevoll et al, Bioorg & Med Chem Lett, 2006, 16, 6190-6193). In brief, membranes from the human endothelial adenocarcinoma cell line EA-Hy926 were prepared and the Kd calculated for the purified membrane fraction. A competitive binding assay was then established to measure inhibition constants. ^125I-echistatin (GE Healthcare; Code IM304) was used as the labelled ligand and cold echistatin as a reference standard. A total of sixteen dilutions of cold test compound (either cold echistatin or cold PET tracer) were prepared and mixed with a combination of ^125I-echistatin and membrane prior to incubation for 1 hour at 37° C. Following several washes, the bound material was harvested on a filter using a Skatron micro harvester. The filterspots were finally excised and counted in a Packard γ-counter.

alcoholic liver fibrosis = settings: baboons; cited from earlier work

Compound	difference in uptake between BDL liver and sham (rat livers; day 30 post surgery)	difference in liver retention between BDL and sham operated animals (rat livers; days 2-15 post surgery (p<0.05))	Ki [1]	effect on alcoholic liver fibrosis (alcoholic liver fibrosis)
N=C(N)NCCC[C@@H]1NC(=O)[C@@H]2CSSC[C@H](NC(=O)[C@H](CC(=O)O)NC(=O)CNC1=O)C(=O)N[C@@H](Cc1ccccc1)C(=O)N[C@H](C(=O)NCCOCCOCCOCCNC(=O)COCC(N)=O)CSCC(=O)N[C@@H](CCCCNC(=O)COCC(=O)NCCOCCOCCOCCOCCOCCNC(=O)CO/N=C/c1ccc([18F])cc1)C(=O)N2 [PET Tracer 1]	no significant difference	significant difference	5 to 10 nM	
Polyenephosphatidylcholine [Polyenephosphatidylcholine (PPC)]				prevented alcoholic liver fibrosis

From US20120100072A1, “PET IMAGING OF FIBROGENESIS” (GE HEALTHCARE LIMITED, priority 2009, published 2012)
